Patent US10954269B2, “Anti-inflammatory tripeptides” (Dr. August Wolff Gmbh & Co. KG Arzneimittel, priority 2013, dated 2021)

Assays:
[1] = tested on: human keratinocyte cell line (HaCaT); experiment: Cytokine secretion on protein level in activated human keratinocyte cell line HaCaT (13-plex FACS / Luminex, supernatant); type: cell-based; settings: substance 10^−9M
Outline: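 Cytokine protein in supernatant is read by multiplex FACS or Luminex. Tripeptide-treated HaCaT cells or blood-derived human T-cells are stimulated beforehand with PMA/Ionomycin or IFN-γ. The most relevant analytes are IL-1, IL-2, IL-6, IL-12p70, IL-17, IFN-γ and TNF-α, sampled 48 h and 72 h after stimulation.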

primary murine T-cells = experiment: Cytokine secretion on protein level in activated primary murine T-cells (13-plex FACS / Luminex, supernatant); type: cell-based, C57BL/6 mice; settings: substance 10^−9M
Outline: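 T-cells from secondary lymphatic organs of naïve C57BL/6 mice, stimulated with PMA/Ionomycin or IFN-γ; supernatant cytokines measured by 13-plex FACS 48 h and 72 h after stimulation. In another run, PMA/Ionomycin-stimulated cells received compounds at 10^−7, 10^−9 and 10^−11 M, with IFN-γ, IL-17 and IL-10 measured by Luminex.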

[2] = HaCaT stimulated with PMA/Ionomycin
[3] = primary murine T-cells stimulated with IFN-γ
[4] = primary murine T-cells stimulated with PBS

H-(L)-Om-(L)-Pro-Aib-OH [Example 11] gave an IL-1 cytokine concentration ([1]; HaCaT stimulated with IFN-γ) of 31.54 pg/mL, an IL-2 cytokine concentration ([1]; HaCaT stimulated with IFN-γ) of 0 pg/mL and an IL-4 cytokine concentration ([1]; HaCaT stimulated with IFN-γ) of 0 pg/mL. It also gave an IL-5 cytokine concentration ([1]; HaCaT stimulated with IFN-γ) of 0 pg/mL, an IL-6 cytokine concentration ([1]; HaCaT stimulated with IFN-γ) of 265.29 pg/mL and an IL-9 cytokine concentration ([1]; HaCaT stimulated with IFN-γ) of 0 pg/mL. It also gave an IL-10 cytokine concentration ([1]; HaCaT stimulated with IFN-γ) of 0 pg/mL, an IL-12p70 cytokine concentration ([1]; HaCaT stimulated with IFN-γ) of 0 pg/mL and an IL-13 cytokine concentration ([1]; HaCaT stimulated with IFN-γ) of 989.21 pg/mL. The IL-17 cytokine concentration ([1]; HaCaT stimulated with IFN-γ) was 0 pg/mL, the IL-22 cytokine concentration ([1]; HaCaT stimulated with IFN-γ) was 0 pg/mL and the TNF-α cytokine concentration ([1]; HaCaT stimulated with IFN-γ) was 0 pg/mL. The IFN-γ cytokine concentration ([1]; HaCaT stimulated with PBS) was 0 pg/mL, the IL-1 cytokine concentration ([1]; HaCaT stimulated with PBS) was 0 pg/mL and the IL-2 cytokine concentration ([1]; HaCaT stimulated with PBS) was 0 pg/mL. For the same substance, the IL-4 cytokine concentration ([1]; HaCaT stimulated with PBS) was 99.64 pg/mL, the IL-5 cytokine concentration ([1]; HaCaT stimulated with PBS) was 0 pg/mL and the IL-6 cytokine concentration ([1]; HaCaT stimulated with PBS) was 42.94 pg/mL. The IL-9 cytokine concentration ([1]; HaCaT stimulated with PBS) was 1.97 pg/mL, the IL-10 cytokine concentration ([1]; HaCaT stimulated with PBS) was 43.56 pg/mL and the IL-12p70 cytokine concentration ([1]; HaCaT stimulated with PBS) was 0 pg/mL. For the same substance, the IL-13 cytokine concentration ([1]; HaCaT stimulated with PBS) was 0 pg/mL, the IL-17 cytokine concentration ([1]; HaCaT stimulated with PBS) was 0 pg/mL and the IL-22 cytokine concentration ([1]; HaCaT stimulated with PBS) was 0 pg/mL. It also gave a TNF-α cytokine concentration ([1]; HaCaT stimulated with PBS) of 0 pg/mL, an IFN-γ cytokine concentration [1, 2] of 57.58 pg/mL and an IL-1 cytokine concentration [1, 2] of 0 pg/mL. It also gave an IL-2 cytokine concentration [1, 2] of 19.32 pg/mL, an IL-4 cytokine concentration [1, 2] of 0 pg/mL and an IL-5 cytokine concentration [1, 2] of 0 pg/mL. It also gave an IL-6 cytokine concentration [1, 2] of 207.76 pg/mL, an IL-9 cytokine concentration [1, 2] of 0 pg/mL and an IL-10 cytokine concentration [1, 2] of 87.41 pg/mL. For the same substance, the IL-12p70 cytokine concentration [1, 2] was 0 pg/mL, the IL-13 cytokine concentration [1, 2] was 0 pg/mL and the IL-17 cytokine concentration [1, 2] was 0 pg/mL. The IL-22 cytokine concentration [1, 2] was 0 pg/mL, the TNF-α cytokine concentration [1, 2] was 0 pg/mL and the IL-1 cytokine concentration (primary murine T-cells; [3]) was 100.08 pg/mL. The IL-2 cytokine concentration (primary murine T-cells; [3]) was 208.9 pg/mL, the IL-4 cytokine concentration (primary murine T-cells; [3]) was 53.65 pg/mL and the IL-5 cytokine concentration (primary murine T-cells; [3]) was 531.87 pg/mL. It also gave an IL-6 cytokine concentration (primary murine T-cells; [3]) of 193.06 pg/mL, an IL-10 cytokine concentration (primary murine T-cells; [3]) of 1383.43 pg/mL and an IL-13 cytokine concentration (primary murine T-cells; [3]) of 0 pg/mL. The IL-17 cytokine concentration (primary murine T-cells; [3]) was 39.84 pg/mL, the IL-21 cytokine concentration (primary murine T-cells; [3]) was 263.02 pg/mL and the IL-22 cytokine concentration (primary murine T-cells; [3]) was 31.59 pg/mL. The IL-27 cytokine concentration (primary murine T-cells; [3]) was 42.99 pg/mL, the TNF-α cytokine concentration (primary murine T-cells; [3]) was 19.71 pg/mL and the IFN-γ cytokine concentration (primary murine T-cells; [4]) was 8321.6 pg/mL. It also gave an IL-1 cytokine concentration (primary murine T-cells; [4]) of 75.71 pg/mL, an IL-2 cytokine concentration (primary murine T-cells; [4]) of 204.62 pg/mL and an IL-4 cytokine concentration (primary murine T-cells; [4]) of 0 pg/mL. For the same substance, the IL-5 cytokine concentration (primary murine T-cells; [4]) was 459.03 pg/mL, the IL-6 cytokine concentration (primary murine T-cells; [4]) was 172.33 pg/mL and the IL-10 cytokine concentration (primary murine T-cells; [4]) was 905.76 pg/mL.
